Bridge positions count the residues as written; N and C are the ends. Square brackets hold non-standard residues; d marks the D form. Peptide text beside a SMILES is read from it. Phe(4-NH2) = Nc1ccc(C[C@H](N)C(=O)O)cc1; Nle = CCCC[C@H](N)C(=O)O
Assays:
Kv1.6 = target: T1, Kv1.6 (Homo sapiens, UniProt P17658); experiment: cell-based; settings: for IC50: CHO cells, whole-cell patch clamp, read-out: Potency IC50 (nM) Kv1.6; for Selectivity Kv1.6/Kv1.3: ratio IC50[Kv1.6]/IC50[Kv1.3]
T1 construct: expressed in transfected cells; host or cells: Chinese Hamster Ovary (CHO)
T1 sequence (P17658 whole entry): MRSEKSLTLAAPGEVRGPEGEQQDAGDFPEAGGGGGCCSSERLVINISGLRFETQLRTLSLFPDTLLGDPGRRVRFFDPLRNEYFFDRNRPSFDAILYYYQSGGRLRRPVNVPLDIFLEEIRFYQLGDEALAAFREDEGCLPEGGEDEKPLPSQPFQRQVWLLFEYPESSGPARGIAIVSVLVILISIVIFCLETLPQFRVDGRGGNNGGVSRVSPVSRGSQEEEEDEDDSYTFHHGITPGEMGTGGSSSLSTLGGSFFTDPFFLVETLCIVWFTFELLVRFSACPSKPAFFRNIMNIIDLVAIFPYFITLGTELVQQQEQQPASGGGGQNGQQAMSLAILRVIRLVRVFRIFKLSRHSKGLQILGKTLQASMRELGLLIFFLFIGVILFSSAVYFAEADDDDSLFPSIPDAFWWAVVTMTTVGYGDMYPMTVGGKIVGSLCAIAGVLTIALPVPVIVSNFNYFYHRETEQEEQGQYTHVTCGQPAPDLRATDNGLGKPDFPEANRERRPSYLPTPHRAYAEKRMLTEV

Kv1.1 = target: T2, Kv1.1 (Homo sapiens, UniProt Q09470); experiment: cell-based; settings: for IC50: CHO cells, whole-cell patch clamp, read-out: Potency IC50 (nM) Kv1.1; for Selectivity Kv1.1/Kv1.3: ratio IC50[Kv1.1]/IC50[Kv1.3]
T2 construct: expressed in transfected cells; host or cells: Chinese Hamster Ovary (CHO)
T2 sequence (Q09470 whole entry): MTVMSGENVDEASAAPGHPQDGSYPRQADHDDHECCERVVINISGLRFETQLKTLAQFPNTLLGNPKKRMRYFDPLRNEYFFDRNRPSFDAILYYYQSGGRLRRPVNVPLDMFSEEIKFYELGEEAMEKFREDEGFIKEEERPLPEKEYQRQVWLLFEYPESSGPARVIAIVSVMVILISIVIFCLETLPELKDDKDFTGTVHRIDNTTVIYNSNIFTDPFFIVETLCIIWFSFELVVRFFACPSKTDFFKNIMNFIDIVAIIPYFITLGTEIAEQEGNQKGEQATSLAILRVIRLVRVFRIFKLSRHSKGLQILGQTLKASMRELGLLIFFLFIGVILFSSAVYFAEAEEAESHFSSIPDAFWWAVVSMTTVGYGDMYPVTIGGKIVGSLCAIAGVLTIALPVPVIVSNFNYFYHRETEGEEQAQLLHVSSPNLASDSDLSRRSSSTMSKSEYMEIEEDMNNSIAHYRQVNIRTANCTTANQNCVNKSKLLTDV

Kv1.2 = target: T3, Kv1.2 (Homo sapiens, UniProt P16389); experiment: cell-based; settings: CHO cells, whole-cell patch clamp; read-out: Potency IC50 (nM) Kv1.2
T3 construct: expressed in transfected cells; host or cells: Chinese Hamster Ovary (CHO)
T3 sequence (P16389 whole entry): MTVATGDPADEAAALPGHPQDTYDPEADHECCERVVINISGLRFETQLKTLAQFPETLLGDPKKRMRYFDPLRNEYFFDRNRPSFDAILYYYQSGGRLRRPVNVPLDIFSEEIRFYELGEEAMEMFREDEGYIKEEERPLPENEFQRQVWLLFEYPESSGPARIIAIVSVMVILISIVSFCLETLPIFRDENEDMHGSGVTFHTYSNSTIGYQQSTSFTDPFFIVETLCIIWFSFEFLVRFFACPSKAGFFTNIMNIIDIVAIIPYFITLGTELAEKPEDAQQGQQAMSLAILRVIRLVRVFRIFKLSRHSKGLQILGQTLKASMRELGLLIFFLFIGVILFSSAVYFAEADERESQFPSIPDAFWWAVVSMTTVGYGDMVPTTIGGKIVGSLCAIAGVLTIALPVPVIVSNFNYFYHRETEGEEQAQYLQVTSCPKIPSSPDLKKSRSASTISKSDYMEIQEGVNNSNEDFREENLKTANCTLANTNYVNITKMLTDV

Rat whole blood = Rat whole blood (Rattus norvegicus, UniProt P15384)
Chain of Rat whole blood (P15384 whole entry): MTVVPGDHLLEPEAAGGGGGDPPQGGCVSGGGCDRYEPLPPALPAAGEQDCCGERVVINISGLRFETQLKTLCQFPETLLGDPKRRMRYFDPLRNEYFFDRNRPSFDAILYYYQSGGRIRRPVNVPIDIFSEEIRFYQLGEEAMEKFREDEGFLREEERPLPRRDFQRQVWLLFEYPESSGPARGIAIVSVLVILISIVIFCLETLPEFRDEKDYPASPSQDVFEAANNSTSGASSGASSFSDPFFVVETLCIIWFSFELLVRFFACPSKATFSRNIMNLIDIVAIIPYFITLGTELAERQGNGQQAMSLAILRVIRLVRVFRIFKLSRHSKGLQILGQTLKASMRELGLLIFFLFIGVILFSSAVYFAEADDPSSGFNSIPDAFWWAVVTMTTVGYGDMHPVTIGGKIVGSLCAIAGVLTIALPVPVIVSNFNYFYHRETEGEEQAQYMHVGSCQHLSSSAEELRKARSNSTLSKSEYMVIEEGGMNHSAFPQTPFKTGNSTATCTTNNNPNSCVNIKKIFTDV

[1] = target: T4, human Kv1.3 voltage-gated K+ channel (Homo sapiens, UniProt P22001); experiment: cell-based; settings: inhibition of thallium flux, CHO-DUKX cells with human Kv1.3; read-out: IC50
T4 construct: host or cells: CHO-DUKX
T4 sequence (P22001 whole entry): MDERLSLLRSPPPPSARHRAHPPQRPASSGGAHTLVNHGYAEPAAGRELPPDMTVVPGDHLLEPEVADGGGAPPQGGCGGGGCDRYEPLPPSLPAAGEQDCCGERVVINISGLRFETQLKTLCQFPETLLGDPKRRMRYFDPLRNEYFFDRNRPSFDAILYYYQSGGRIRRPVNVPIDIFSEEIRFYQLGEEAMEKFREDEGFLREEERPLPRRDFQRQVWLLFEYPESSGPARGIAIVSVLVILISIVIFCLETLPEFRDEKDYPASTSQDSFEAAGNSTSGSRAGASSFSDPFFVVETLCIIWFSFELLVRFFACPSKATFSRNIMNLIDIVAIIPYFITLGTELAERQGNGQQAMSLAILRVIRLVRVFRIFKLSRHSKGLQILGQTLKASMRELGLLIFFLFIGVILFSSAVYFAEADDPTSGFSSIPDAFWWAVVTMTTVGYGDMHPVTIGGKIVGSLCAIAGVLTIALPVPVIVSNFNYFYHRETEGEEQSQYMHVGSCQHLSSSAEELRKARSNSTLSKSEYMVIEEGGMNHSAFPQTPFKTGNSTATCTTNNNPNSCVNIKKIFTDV

Kv1.3 = target: T5, Kv1.3 (Homo sapiens, UniProt P22001); experiment: cell-based; settings: CHO cells, whole-cell patch clamp; read-out: Potency IC50 (nM) Kv1.3
T5 construct: expressed in transfected cells; host or cells: Chinese Hamster Ovary (CHO)
T5 sequence (P22001 whole entry): as above

SMILES: CCCC[C@H](NC(=O)[C@H](CC(=O)O)NC(=O)[C@H](CCCC)NC(=O)[C@@H](N)CO)C(=O)N[C@@H](CCCNC(=N)N)C(=O)N[C@H]1CSSC[C@@H]2NC(=O)[C@H](CCCCN)NC(=O)CNC(=O)[C@H](Cc3ccccc3)NC(=O)[C@H]([C@@H](C)CC)NC(=O)[C@H](CO)NC(=O)CNC(=O)[C@H]([C@@H](C)CC)NC(=O)[C@H](C)NC(=O)[C@H](CCCCN)NC(=O)[C@H](CC(C)C)NC(=O)[C@@H]3CSSC[C@@H](C(=O)N[C@@H](Cc4ccc(O)cc4)C(=O)N4CCC[C@H]4C(=O)N[C@@H](CCCNC(=N)N)C(N)=O)NC(=O)[C@H](CCCCN)NC(=O)[C@H](CSSC[C@H](NC(=O)[C@H](CCC(=O)O)NC(=O)[C@H](C(C)C)NC(=O)[C@H](CO)NC(=O)[C@H](C)NC(=O)[C@H](CO)NC1=O)C(=O)NCC(=O)N[C@@H](CCC(N)=O)C(=O)N[C@@H](CCCCN)C(=O)N3)NC(=O)[C@H](CCCCN)NC(=O)[C@H](CCCCN)NC(=O)[C@H](CC(N)=O)NC(=O)[C@H](CCSC)NC2=O [Compound 71] (H-S[Nle]D[Nle]RCSASVECGQKCLKAIGSIFGKCMNKKCKCYPR-NH2; disulfide 6-27, 12-32, 16-34)
- IC50 (Kv1.6): > 3000 nM
- Selectivity Kv1.6/Kv1.3 (Kv1.6): >27700
- IC50 (Kv1.1): > 3000 nM
- Selectivity Kv1.1/Kv1.3 (Kv1.1): >27700
- IC50 (Kv1.2): 373 nM
- IC50 (Rat whole blood): ≤ 1 nM
- IC50 [1]: 0.1 nM
- IC50 (Kv1.3): 0.11 nM

SMILES: CCCC[C@@H]1NC(=O)[C@@H]2CSSC[C@H](NC(=O)[C@H](CCCNC(=N)N)NC(=O)[C@H](CC(C)C)NC(C)=O)C(=O)N[C@@H](CO)C(=O)N[C@@H](C)C(=O)N[C@@H](CO)C(=O)N[C@@H](C(C)C)C(=O)N[C@@H](CCC(=O)O)C(=O)N[C@H]3CSSC[C@H](NC(=O)[C@H](CCCCN)NC(=O)[C@H](CCCCN)NC(=O)[C@H](CC(N)=O)NC1=O)C(=O)N[C@@H](CCCCN)C(=O)N[C@H](C(=O)N[C@@H](Cc1ccc(O)cc1)C(=O)N1CCC[C@H]1C(=O)N[C@@H](CCCNC(=N)N)C(N)=O)CSSC[C@H](NC(=O)[C@H](CCCCN)NC(=O)[C@H](CCC(N)=O)NC(=O)[C@H](CCCCN)NC3=O)C(=O)N[C@@H](CC(C)C)C(=O)N[C@@H](CCCCN)C(=O)N[C@@H](C)C(=O)N[C@@H]([C@@H](C)CC)C(=O)NCC(=O)N[C@@H](CO)C(=O)N[C@@H]([C@@H](C)CC)C(=O)N[C@@H](Cc1ccccc1)C(=O)NCC(=O)N[C@@H](CCCCN)C(=O)N2 [Compound 108] (Ac-LRCSASVECKQKCLKAIGSIFGKC[Nle]NKKCKCYPR-NH2; disulfide 3-24, 9-29, 13-31)
- IC50 (Kv1.6): 2460 nM
- IC50 (Kv1.1): > 3000 nM
- Selectivity Kv1.1/Kv1.3 (Kv1.1): >8700
- IC50 (Kv1.2): 122 nM
- IC50 (Rat whole blood): ≤ 1 nM
- IC50 [1]: 0.1 nM
- IC50 (Kv1.3): 0.35 nM

SMILES: CCCC[C@@H]1NC(=O)[C@@H]2CSSC[C@H](NC(=O)[C@@H](N)CCCNC(=N)N)C(=O)N[C@@H](CO)C(=O)N[C@@H](C)C(=O)N[C@@H](CO)C(=O)N[C@@H](C(C)C)C(=O)N[C@@H](CCC(=O)O)C(=O)N[C@H]3CSSC[C@H](NC(=O)[C@H](CCCCN)NC(=O)[C@H](CCCCN)NC(=O)[C@H](CC(N)=O)NC1=O)C(=O)N[C@@H](CCCCN)C(=O)N[C@H](C(=O)N[C@@H](Cc1ccc(O)cc1)C(=O)N1CCC[C@H]1C(=O)N[C@@H](CCCNC(=N)N)C(N)=O)CSSC[C@H](NC(=O)[C@H](CCCCN)NC(=O)[C@H](CCC(N)=O)NC(=O)[C@H](CCCCN)NC3=O)C(=O)N[C@@H](CC(C)C)C(=O)N[C@@H](CCCCN)C(=O)N[C@@H](C)C(=O)N[C@@H]([C@@H](C)CC)C(=O)NCC(=O)N[C@@H](CO)C(=O)N[C@@H]([C@@H](C)CC)C(=O)N[C@@H](Cc1ccccc1)C(=O)NCC(=O)N[C@@H](CCCCN)C(=O)N2 [Compound 106] (H-RCSASVECKQKCLKAIGSIFGKC[Nle]NKKCKCYPR-NH2; disulfide 2-23, 8-28, 12-30)
- IC50 (Kv1.6): 1300 nM
- IC50 (Kv1.1): > 3000 nM
- Selectivity Kv1.1/Kv1.3 (Kv1.1): >7600
- IC50 (Kv1.2): 280 nM
- IC50 (Rat whole blood): ≤ 1 nM
- IC50 [1]: 0.092 nM
- IC50 (Kv1.3): 0.4 nM

SMILES: CCCC[C@H](NC(=O)[C@H](CC(=O)O)NC(=O)[C@H](CCCC)NC(=O)[C@@H](N)CO)C(=O)N[C@@H](CCCNC(=N)N)C(=O)N[C@H]1CSSC[C@@H]2NC(=O)[C@H](CCCCN)NC(=O)CNC(=O)[C@H](Cc3ccccc3)NC(=O)[C@H]([C@@H](C)CC)NC(=O)[C@H](CO)NC(=O)CNC(=O)[C@H]([C@@H](C)CC)NC(=O)[C@H](C)NC(=O)[C@H](CCCCN)NC(=O)[C@H](CC(C)C)NC(=O)[C@@H]3CSSC[C@@H](C(=O)N[C@@H](Cc4ccc(N)cc4)C(=O)N4CCC[C@H]4C(=O)N[C@@H](CCCNC(=N)N)C(N)=O)NC(=O)[C@H](CCCCN)NC(=O)[C@H](CSSC[C@H](NC(=O)[C@H](CCC(=O)O)NC(=O)[C@H](C(C)C)NC(=O)[C@H](CO)NC(=O)[C@H](C)NC(=O)[C@H](CO)NC1=O)C(=O)N[C@@H](CCCCN)C(=O)N[C@@H](CCC(N)=O)C(=O)N[C@@H](CCCCN)C(=O)N3)NC(=O)[C@H](CCCCN)NC(=O)[C@H](CCCCN)NC(=O)[C@H](CC(N)=O)NC(=O)[C@H](CCSC)NC2=O [Compound 70] (H-S[Nle]D[Nle]RCSASVECKQKCLKAIGSIFGKCMNKKCKC[Phe(4-NH2)]PR-NH2; disulfide 6-27, 12-32, 16-34)
- IC50 (Kv1.6): > 3000 nM
- Selectivity Kv1.6/Kv1.3 (Kv1.6): >12200
- IC50 (Kv1.1): > 3000 nM
- Selectivity Kv1.1/Kv1.3 (Kv1.1): >12200
- IC50 (Kv1.2): 423 nM
- IC50 (Rat whole blood): ≤ 1 nM
- IC50 [1]: 0.13 nM
- IC50 (Kv1.3): 0.25 nM

SMILES: CCCC[C@H](NC(=O)[C@@H]1CCCN1)C(=O)N[C@@H](CCC(=O)O)C(=O)N[C@@H](CCCC)C(=O)N[C@@H](CCCNC(=N)N)C(=O)N[C@H]1CSSC[C@@H]2NC(=O)[C@H](CCCCN)NC(=O)CNC(=O)[C@H](Cc3ccccc3)NC(=O)[C@H]([C@@H](C)CC)NC(=O)[C@H](CO)NC(=O)CNC(=O)[C@H]([C@@H](C)CC)NC(=O)[C@H](C)NC(=O)[C@H](C)NC(=O)[C@H](CC(C)C)NC(=O)[C@@H]3CSSC[C@@H](C(=O)N[C@@H](Cc4ccc(O)cc4)C(=O)N4CCC[C@H]4C(=O)N[C@@H](CCCNC(=N)N)C(N)=O)NC(=O)[C@H](CCCCN)NC(=O)[C@H](CSSC[C@H](NC(=O)[C@H](CCC(=O)O)NC(=O)[C@H](C(C)C)NC(=O)[C@H](CO)NC(=O)[C@H](C)NC(=O)[C@H](CO)NC1=O)C(=O)N[C@@H](CCCCN)C(=O)N[C@@H](CCC(N)=O)C(=O)N[C@@H](CCCCN)C(=O)N3)NC(=O)[C@H](CCCCN)NC(=O)[C@H](CCCCN)NC(=O)[C@H](CC(N)=O)NC(=O)[C@H](CCCC)NC2=O [Compound 98] (H-P[Nle]E[Nle]RCSASVECKQKCLAAIGSIFGKC[Nle]NKKCKCYPR-NH2; disulfide 6-27, 12-32, 16-34)
- IC50 (Kv1.6): > 3000 nM
- Selectivity Kv1.6/Kv1.3 (Kv1.6): >16200
- IC50 (Kv1.1): > 3000 nM
- Selectivity Kv1.1/Kv1.3 (Kv1.1): >16200
- IC50 (Kv1.2): 311 nM
- IC50 (Rat whole blood): ≤ 1 nM
- IC50 [1]: 0.11 nM
- IC50 (Kv1.3): 0.18 nM

SMILES: CC[C@H](C)[C@@H]1NC(=O)[C@H](C)NC(=O)[C@H](CCCCN)NC(=O)[C@H](CC(C)C)NC(=O)[C@@H]2CSSC[C@@H](C(=O)N[C@@H](Cc3ccc(O)cc3)C(=O)N3CCC[C@H]3C(=O)N[C@@H](CCCNC(=N)N)C(N)=O)NC(=O)[C@H](CCCCN)NC(=O)[C@@H]3CSSC[C@H](NC(=O)[C@H](CCC(=O)O)NC(=O)[C@H](C(C)C)NC(=O)[C@H](CO)NC(=O)[C@H](C)NC(=O)[C@H](CO)NC(=O)[C@@H](NC(=O)[C@H](CCCNC(=N)N)NC(=O)[C@H](CCSC)NC(=O)[C@H](CC(=O)O)NC(=O)[C@H](CCSC)NC(=O)[C@@H](N)CC(N)=O)CSSC[C@H](NC(=O)[C@H](CCCCN)NC(=O)CNC(=O)[C@H](Cc4ccccc4)NC(=O)[C@H]([C@@H](C)CC)NC(=O)[C@H](CO)NC(=O)[C@H](CCCNC(=N)N)NC1=O)C(=O)N[C@@H](CCSC)C(=O)N[C@@H](CC(N)=O)C(=O)N[C@@H](CCCCN)C(=O)N[C@@H](CCCCN)C(=O)N3)C(=O)N[C@@H](CCCCN)C(=O)N[C@@H](CCC(N)=O)C(=O)N[C@@H](CCCCN)C(=O)N2 [Compound 21] (H-NMDMRCSASVECKQKCLKAIRSIFGKCMNKKCKCYPR-NH2; disulfide 6-27, 12-32, 16-34)
- IC50 (Kv1.6): 626 nM
- IC50 (Kv1.1): > 3000 nM
- Selectivity Kv1.1/Kv1.3 (Kv1.1): >13700
- IC50 (Kv1.2): 57 nM
- IC50 (Rat whole blood): ≤ 1 nM
- IC50 [1]: 0.12 nM
- IC50 (Kv1.3): 0.22 nM

SMILES: CCCC[C@@H]1NC(=O)[C@@H]2CSSC[C@H](NC(=O)[C@H](CCCNC(=N)N)NC(=O)[C@H](CCCC)NC(=O)[C@H](CC(=O)O)NC(=O)[C@@H](N)CCCC)C(=O)N[C@@H](CO)C(=O)N[C@@H](C)C(=O)N[C@@H](CO)C(=O)N[C@@H](C(C)C)C(=O)N[C@@H](CCC(=O)O)C(=O)N[C@H]3CSSC[C@H](NC(=O)[C@H](CCCCN)NC(=O)[C@H](CCCCN)NC(=O)[C@H](CC(N)=O)NC1=O)C(=O)N[C@@H](CCCCN)C(=O)N[C@H](C(=O)N[C@@H](Cc1ccc(O)cc1)C(=O)N1CCC[C@H]1C(=O)N[C@@H](CCCNC(=N)N)C(=O)O)CSSC[C@H](NC(=O)[C@H](CCCCN)NC(=O)[C@H](CCC(N)=O)NC(=O)[C@H](CCCCN)NC3=O)C(=O)N[C@@H](CC(C)C)C(=O)N[C@@H](CCCCN)C(=O)N[C@@H](C)C(=O)N[C@@H]([C@@H](C)CC)C(=O)NCC(=O)N[C@@H](CO)C(=O)N[C@@H]([C@@H](C)CC)C(=O)N[C@@H](Cc1ccccc1)C(=O)NCC(=O)N[C@@H](CCCCN)C(=O)N2 [Compound 94] (H-[Nle]D[Nle]RCSASVECKQKCLKAIGSIFGKC[Nle]NKKCKCYPR-OH; disulfide 5-26, 11-31, 15-33)
- IC50 (Kv1.6): > 3000 nM
- Selectivity Kv1.6/Kv1.3 (Kv1.6): >17800
- IC50 (Kv1.1): > 3000 nM
- Selectivity Kv1.1/Kv1.3 (Kv1.1): >17800
- IC50 (Kv1.2): 1860 nM
- IC50 (Rat whole blood): ≤ 1 nM
- IC50 [1]: 0.16 nM
- IC50 (Kv1.3): 0.17 nM

Source: US11780893B2, “Kv1.3 blockers” (Zealand Pharma A/S, priority 2019, dated 2023)
